From ChEMBL document CHEMBL3507680, “University of Dundee, Gates Library screen for HepG2 cell viability”

Assay: Human HepG2 cell viability assay in 384 well format
Format: toxicity, cell-based
Parameters: dose 125 nL, time 70.5 hour; concentration not given beside the values
Details: HepG2 cells, read-out: Inhibition

Going from `O=C(c1ccc(N2CCOCC2)cc1)N1CCCC(n2ccnc2)C1` (stereo not given) to `Cc1cnn(C2CCCN(C(=O)c3ccnc(-n4cncn4)c3)C2)c1` (stereo not given), the cytotoxicity at 70.5 h falls from 20.8% to -7.22%.

Compared with `O=C(c1cncnc1)N1C[C@@H]2CC[C@H](Oc3cccc(F)c3)[C@@H]2C1`, `Cc1cc(C2CCCN(C(=O)COc3cccc(F)c3)C2)n[nH]1` (stereo not given) is higher in cytotoxicity at 70.5 h: -8.85% for the first, -5.26% for the second.

First: CN(Cc1ccc(C#N)cc1)CC1CCS(=O)(=O)C1 (stereo not given)
Second: Cc1ncc(CN(C)C(=O)Nc2ccc(CN3CCOC3=O)cc2)s1
The cytotoxicity at 70.5 h of the first is lower: -8.96% for the first, -7.05% for the second.

Compared with `CCC(C)N(CC)C(=O)c1ccc2[nH]nnc2c1` (stereo not given), `CCn1ccc(NC(=O)c2cc(C)on2)n1` is lower in cytotoxicity at 70.5 h: -6.36% for the first, -8.5% for the second.

Compared with `COc1cc(CNC2CCc3nc(C)nn3C2)cc2c1OCCO2` (stereo not given), `COc1cc(CN(CCCN(C)C)Cc2ccccn2)cc2c1OCO2` is higher in cytotoxicity at 70.5 h: -9% for the first, 0.223% for the second.

First: CN(Cc1ccco1)[C@@H]1CN(CC2CCOCC2)[C@@H]2CCCO[C@H]12
Second: c1ccc(OCC2C[C@@H]3[C@@H](C2)OCCN3Cc2ccoc2)nc1 (stereo not given in full)
The cytotoxicity at 70.5 h of the first is lower: -11.5% for the first, -0.172% for the second.

Compared with `Cn1cc(C(=O)NCc2cncc3c2CCN(CC2CC2)C3)cn1`, `CC(C)N1CCCC(CNC(=O)Cc2csc(-c3cccnc3)n2)C1` (stereo not given) is lower in cytotoxicity at 70.5 h: 17.9% for the first, -0.239% for the second.

Compared with `Cc1ccc(C(=O)Nc2c(C(=O)N(C)C)nn(C)c2C)cc1`, `CC(=O)NCCNc1nc(-c2ccccn2)nc2c1c(C)nn2C` is higher in cytotoxicity at 70.5 h: -4.31% for the first, 1.86% for the second.

First: CC(=O)N1CCN(C(=O)Cc2cnc(-c3c(Cl)cccc3Cl)s2)CC1
Second: CN1C(=O)C2(CCN(C(=O)c3cccnc3)CC2)c2cccc(F)c21
The cytotoxicity at 70.5 h of the first is lower: -13.6% for the first, -2.04% for the second.

Compared with `CN(CC(N)=O)Cc1csc(-c2ccc(F)cc2)n1`, `CN(Cc1ccsc1)C(=O)c1ccc2c(c1)NC(=O)CO2` is lower in cytotoxicity at 70.5 h: -0.0734% for the first, -7.5% for the second.

Going from `CC(C)Nc1nc(O)cc(C(C)n2ncc3ccccc3c2=O)n1` (stereo not given) to `Cn1c(C(=O)Nc2nc[nH]n2)cc2ccccc21`, the cytotoxicity at 70.5 h rises from -5.33% to 10.4%.

Compared with `O=c1c2ccccc2nc2n1C(CSc1ccc(Br)cc1)CN2` (stereo not given), `CNc1cccc(C2CCCN(C(=O)Cc3ccccc3)C2)n1` (stereo not given) is lower in cytotoxicity at 70.5 h: 0.264% for the first, -7.78% for the second.

Compared with `Cc1noc(C2CCCN(C(=O)c3ccc(Br)cc3F)C2)n1` (stereo not given), `O=C(C1CCCC1)N1CC(c2nc(Cc3ccccc3)no2)C1` is lower in cytotoxicity at 70.5 h: -7.35% for the first, -14.5% for the second.

Compared with `O=C(NC[C@H]1OC[C@@H](NC2CCC(F)(F)CC2)[C@@H]1O)c1cccs1`, `O=C1CC2(CCN(C(=O)c3cccc(Cl)c3)CC2)CN1` is lower in cytotoxicity at 70.5 h: -5.94% for the first, -7.17% for the second.

First: COc1cc(N(C)Cc2cccc(-n3cccn3)c2)nc(N)n1
Second: c1cncc(CN2CC(Cc3nccc4cc[nH]c34)C2)c1
The cytotoxicity at 70.5 h of the first is higher: -1.55% for the first, -3.48% for the second.

Going from `CN1CCOC[C@H]1c1nc(-c2cccc(F)c2)c[nH]1` to `Fc1cnc(N2C[C@H]3CN(Cc4cccc(F)c4)C[C@H]3C2)nc1`, the cytotoxicity at 70.5 h falls from 2.61% to -13.6%.

First: Cc1oc(NC(=O)C(C)N2CCN(CCO)CC2)c(C#N)c1C (stereo not given)
Second: Cc1nn(CC(=O)NCc2cc3n(n2)CCCN(CC(C)C)C3)cc1Cl
The cytotoxicity at 70.5 h of the first is lower: -2.61% for the first, 9.44% for the second.

Compared with `CCOCCCNC(=O)c1nc2c(s1)CCCN2c1ccc(C)nn1`, `O=C(NCCCn1cccn1)C1COCC(=O)N1Cc1ccccc1` (stereo not given) is higher in cytotoxicity at 70.5 h: -7.8% for the first, -0.531% for the second.

First: CC(C)(C(=O)NCC1CCN(Cc2ncc[nH]2)C1)c1ccccc1 (stereo not given)
Second: COCC1CN(C(=O)COc2ccccc2)Cc2cn(C)nc21 (stereo not given)
The cytotoxicity at 70.5 h of the first is higher: -5.7% for the first, -18% for the second.

First: O=C(Cn1cc(C2CC2)nn1)NC(c1ccc(Cl)cc1)C1CC1 (stereo not given)
Second: Cc1cnc(C(=O)N2CCCC(Cn3cc(C4CC4)nn3)C2)cn1 (stereo not given)
The cytotoxicity at 70.5 h of the first is higher: -8.06% for the first, -10.1% for the second.

Going from `Cc1nccn1CCN(C)C(=O)C1CCN(C(=O)C2CCC2)CC1` to `CCS(=O)(=O)N1CCN(C)c2ncccc2C1`, the cytotoxicity at 70.5 h falls from 11.3% to -7.16%.

First: OC1CCN(Cc2ccc(CNc3ncc(Cl)cc3F)cc2)CC1
Second: CNc1nccnc1C1CN(C(=O)c2cc[nH]n2)CCO1 (stereo not given)
The cytotoxicity at 70.5 h of the first is higher: 14.7% for the first, -4.96% for the second.

In the case of `c1ccc2c(c1)CN(c1ncnc3c1CCNC3)CCO2`, the cytotoxicity at 70.5 h was -5.38%.
